Entries after “also recorded” stand apart in the source; their conditions may differ. Where two headings read alike, the source gives them in different places. Values belong to the molecule of their own block, whether it stands above or below them.
Assays:
[1] = target: Vanin-1 (Homo sapiens (Human), UniProt O95497); test: VNN1 inhibitor binding assay (Kd, affinity beads, qPCR readout); conditions: read-out: Vanin Affinity (nM), Vanin-1 Binding constants
Experimental: (§1) Test compounds were prepared as 111X stocks in 100% DMSO. Kd values were determined using an 11-point 3-fold compound dilution series with three DMSO control points. […] The compounds were then diluted directly into the assays such that the final concentration of DMSO was 0.9%. All reactions were performed in polypropylene 384-well plate. Each was a final volume of 0.02 ml. […] The beads were then re-suspended in elution buffer (1×PBS, 0.05% Tween 20, 0.5 μM non-biotinylated affinity ligand) and incubated at room temperature with shaking for 30 minutes. The kinase concentration in the eluates was measured by qPCR.
Binding constants were calculated with a standard dose-response curve using the Hill equation:
The Hill Slope was set to −1. Curves were fitted using a non-linear least square fit with the Levenberg-Marquardt algorithm. The binding data is summarized in Table 1 where A is less than 100 nM, B is 100 to 500 nM, and C is greater than 500 nM.
as §1, with “are” for “were”, “is” for “was”, “reactions” for “reactions were”
Binding constants are calculated with a standard dose-response curve using the Hill equation:
The Hill Slope was set to −1. Curves were fitted using a non-linear least square fit with the Levenberg-Marquardt algorithm. The binding data is summarized in Table 4 where A is less than 100 nM, B is 100 to 500 nM, and C is greater than 500 nM.

[2] = target: CYP1A2 (Homo sapiens (Human), UniProt P05177); test: Cytochrome P450 inhibition assay, substrate cocktail in human liver microsome; type: in vitro ADME; conditions: microsomes
Chain of CYP1A2 (P05177 whole entry): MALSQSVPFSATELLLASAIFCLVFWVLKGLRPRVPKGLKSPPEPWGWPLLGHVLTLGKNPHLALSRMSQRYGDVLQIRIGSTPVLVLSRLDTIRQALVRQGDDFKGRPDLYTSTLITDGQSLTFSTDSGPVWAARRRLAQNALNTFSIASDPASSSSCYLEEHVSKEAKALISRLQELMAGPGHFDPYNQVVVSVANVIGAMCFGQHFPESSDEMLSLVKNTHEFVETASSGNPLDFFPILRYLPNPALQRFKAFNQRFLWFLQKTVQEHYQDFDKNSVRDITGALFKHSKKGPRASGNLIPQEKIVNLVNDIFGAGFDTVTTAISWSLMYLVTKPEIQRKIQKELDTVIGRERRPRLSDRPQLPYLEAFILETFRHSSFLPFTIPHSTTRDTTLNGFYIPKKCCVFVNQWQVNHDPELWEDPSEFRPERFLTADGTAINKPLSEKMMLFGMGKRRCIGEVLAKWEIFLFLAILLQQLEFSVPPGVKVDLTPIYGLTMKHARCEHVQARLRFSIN
Experimental: (§2) Cytochrome P450 inhibition of a drug is a key factor in determining pharmacokinetic drug-drug interactions. The objective of this study is to evaluate the inhibition potential of VNN1 inhibitors on six (6) major human cytochrome P450 enzymes, including CYP1A2, CYP2C8, CYP2C9, CYP2C19, CYP2D6, and CYP3A4. Inhibition was determined by using a substrate cocktail and analyzing the rate of specific metabolites formation. The cytochrome P450 inhibition assay was developed using a cocktail consisting of six (6) probe substrates ethoxy-resorufin (CYP1A2), rosiglitazone (CYP2C8), diclofenac (CYP2C9), S-mephenytoin (CYP2C19), dextromethorphan (CYP2D6), and midazolam (CYP3A4). The cocktail was incubated in human liver microsome with NADPH regenerating system (NRS) in a shaking bath at 37±2° C. The formation of specific metabolites was monitored by LC/MS/MS. Test compound was added to the cocktail-liver microsome mixture at varying concentrations and its effect on cytochrome P450 activity was determined by analyzing the rate of specific metabolite formation. The percent inhibition was calculated and plotted with reference to the concentration, and the IC50 value for inhibition was derived by fitting the data with a standard sigmoidal dose-response equation via MLA “Quest Graph™ ED50 Calculator.” AAT Bioquest, Inc, 17 Sep. 2020, aatbio.com/tools/ed50-calculator. […]. […].
(§3) Inhibition by Cytochrome P450 is determined using a substrate cocktail and analyzing the rate of specific metabolites formation outlined in Example 21. The following structures were tested: Compound 5, Compound 9, Compound 10, Compound 13, Compound 14, Compound 16, Compound 20, Compound 21, Compound 23, Compound 24, and Compound 25.

[3] = target: CYP2C19 (Homo sapiens (Human), UniProt P33261); test: as above; type: in vitro ADME; conditions: CYP isozyme 2C19, human liver microsome
Chain of CYP2C19 (P33261 whole entry): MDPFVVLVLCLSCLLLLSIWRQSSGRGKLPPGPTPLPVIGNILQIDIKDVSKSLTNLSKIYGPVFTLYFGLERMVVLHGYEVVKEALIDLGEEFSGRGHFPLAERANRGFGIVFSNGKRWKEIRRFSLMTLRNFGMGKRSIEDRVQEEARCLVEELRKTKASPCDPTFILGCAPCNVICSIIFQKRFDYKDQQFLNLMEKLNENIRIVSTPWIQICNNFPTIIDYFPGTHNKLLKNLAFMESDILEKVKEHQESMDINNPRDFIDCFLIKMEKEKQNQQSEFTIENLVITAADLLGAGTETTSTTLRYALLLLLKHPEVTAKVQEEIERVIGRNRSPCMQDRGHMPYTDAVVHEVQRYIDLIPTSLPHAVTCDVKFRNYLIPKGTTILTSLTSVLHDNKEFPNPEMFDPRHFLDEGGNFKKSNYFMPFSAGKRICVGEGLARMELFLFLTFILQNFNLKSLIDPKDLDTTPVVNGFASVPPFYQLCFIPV
Experimental: as §2, §3

[4] = target: CYP2C8 (Homo sapiens (Human), UniProt P10632); test: as above; type: in vitro ADME; conditions: microsomes
Chain of CYP2C8 (P10632 whole entry): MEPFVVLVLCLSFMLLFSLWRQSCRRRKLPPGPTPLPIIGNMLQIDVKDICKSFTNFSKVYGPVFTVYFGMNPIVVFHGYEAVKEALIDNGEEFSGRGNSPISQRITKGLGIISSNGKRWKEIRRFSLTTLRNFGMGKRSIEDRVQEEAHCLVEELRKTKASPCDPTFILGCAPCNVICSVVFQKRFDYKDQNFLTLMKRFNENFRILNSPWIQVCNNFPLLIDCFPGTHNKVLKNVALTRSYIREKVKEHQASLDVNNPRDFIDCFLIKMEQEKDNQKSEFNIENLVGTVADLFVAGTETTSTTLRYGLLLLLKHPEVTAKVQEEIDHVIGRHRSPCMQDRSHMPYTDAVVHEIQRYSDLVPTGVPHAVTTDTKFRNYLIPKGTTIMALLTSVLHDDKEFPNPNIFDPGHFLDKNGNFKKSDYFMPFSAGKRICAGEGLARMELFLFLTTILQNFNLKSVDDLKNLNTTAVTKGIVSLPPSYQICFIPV
Experimental: as §2, §3

[5] = target: CYP2C9 (Homo sapiens (Human), UniProt P11712); test: as above; type: in vitro ADME; conditions: microsomes
Chain of CYP2C9 (P11712 whole entry): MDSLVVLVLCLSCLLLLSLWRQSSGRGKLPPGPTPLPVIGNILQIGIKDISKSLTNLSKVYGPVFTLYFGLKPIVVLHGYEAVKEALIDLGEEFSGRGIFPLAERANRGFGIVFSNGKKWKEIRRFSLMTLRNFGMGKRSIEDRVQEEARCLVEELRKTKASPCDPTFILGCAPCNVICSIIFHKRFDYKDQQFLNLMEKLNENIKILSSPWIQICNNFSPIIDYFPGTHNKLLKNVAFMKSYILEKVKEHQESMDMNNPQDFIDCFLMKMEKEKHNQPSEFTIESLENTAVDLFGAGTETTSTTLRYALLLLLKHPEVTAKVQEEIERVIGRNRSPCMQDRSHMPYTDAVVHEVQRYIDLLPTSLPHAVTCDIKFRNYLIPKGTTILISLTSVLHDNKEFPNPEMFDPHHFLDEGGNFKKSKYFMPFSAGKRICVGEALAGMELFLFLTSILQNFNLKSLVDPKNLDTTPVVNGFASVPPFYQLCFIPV
Experimental: as §2, §3

[6] = target: CYP2D6 (Homo sapiens (Human), UniProt P10635); test: as above; type: in vitro ADME; conditions: microsomes
Chain of CYP2D6 (P10635 whole entry): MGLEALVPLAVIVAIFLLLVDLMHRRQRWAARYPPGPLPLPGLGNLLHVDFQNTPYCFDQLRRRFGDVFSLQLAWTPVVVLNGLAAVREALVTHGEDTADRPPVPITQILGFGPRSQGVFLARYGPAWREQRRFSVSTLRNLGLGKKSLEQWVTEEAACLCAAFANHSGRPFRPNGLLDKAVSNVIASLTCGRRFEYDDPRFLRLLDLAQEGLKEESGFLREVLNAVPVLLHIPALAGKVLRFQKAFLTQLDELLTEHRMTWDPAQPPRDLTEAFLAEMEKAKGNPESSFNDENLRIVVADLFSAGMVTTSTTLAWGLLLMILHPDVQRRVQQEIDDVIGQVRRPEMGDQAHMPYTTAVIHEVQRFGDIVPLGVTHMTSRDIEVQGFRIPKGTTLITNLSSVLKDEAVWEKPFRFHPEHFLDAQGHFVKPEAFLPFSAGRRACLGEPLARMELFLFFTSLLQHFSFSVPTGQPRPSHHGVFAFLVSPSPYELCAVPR
Experimental: as §2, §3

[7] = target: CYP3A4 (Homo sapiens (Human), UniProt P08684); test: as above; type: in vitro ADME; conditions: microsomes
Chain of CYP3A4 (P08684 whole entry): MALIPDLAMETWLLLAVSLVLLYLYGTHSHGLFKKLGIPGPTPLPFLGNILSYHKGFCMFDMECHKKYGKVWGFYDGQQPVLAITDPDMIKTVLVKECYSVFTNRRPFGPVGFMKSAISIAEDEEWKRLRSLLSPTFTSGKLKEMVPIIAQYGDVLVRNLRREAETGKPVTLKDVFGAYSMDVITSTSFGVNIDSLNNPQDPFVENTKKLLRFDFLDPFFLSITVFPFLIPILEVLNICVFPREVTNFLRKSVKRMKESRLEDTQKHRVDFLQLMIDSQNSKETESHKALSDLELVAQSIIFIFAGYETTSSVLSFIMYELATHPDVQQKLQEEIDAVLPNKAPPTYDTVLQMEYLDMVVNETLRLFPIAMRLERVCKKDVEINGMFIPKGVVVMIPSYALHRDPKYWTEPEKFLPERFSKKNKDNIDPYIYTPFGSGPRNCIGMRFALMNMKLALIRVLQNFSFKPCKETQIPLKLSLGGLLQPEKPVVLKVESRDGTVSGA
Experimental: as §2, §3

[8] = tested on: TNF-alpha (TNFA), interleukin 6 (IL6), interleukin 1beta (IL1B), MCP1 and interleukin 8 (IL8); test: Immune cellular assay, cytokine ELISA multiplex in LPS-treated THP-1 derived macrophages; type: cell-based, human; conditions: 1 μM, THP-1 macrophages, 100 ng/mL LPS for 4 or 24 hours
Experimental: The anti-inflammatory properties of the four VNN1 inhibitors (Compound 1, Compound 2, Compound 3, and Compound 80) were evaluated in an immune cellular assay targeting key pro-inflammatory cytokines involved in the pathogenesis of multiple autoimmune disease.
Specifically, THP-1 human monocytes were grown in 6-well plates (RPMI 1640+10% FBS+1% P/S). After washing with PBS the THP-1 cells were differentiated into macrophages using 20 nM of phorbol 12-myristate 13-acetate (PMA) for 24 hrs. Compound 1, Compound 2, Compound 3, and Compound 80 (1 μM) were added into the macrophages, which are incubated for 4 hours before the addition of 100 ng/mL lipopolysaccharide (LPS) for either 4 or 24 hours. Next, the macrophages are collected via centrifugation at 1.2K rpm for 5 min and use their media to evaluate cytokine protein levels by using the Bio-rad Cytokine ELISA multiplex assay (cat. No M5000031YV). The supernatants from macrophages treated only with only LPS+PMA are collected and use as negative controls.
The anti-inflammatory properties of the VNN1 inhibitors Compound 5, Compound 9, Compound 10, Compound 13, Compound 14, Compound 16, Compound 20, Compound 21, Compound 26, Compound 23, and Compound 24 are evaluated using the immune cellular assay outlined in Example 6. Suppression of TNF-alpha (TNFA), interleukin 6 (IL6), interleukin 1beta (IL1B), MCP1 and interleukin 8 (IL8) is determined.

[9] = tested on: TNF-alpha (TNFA); test: Cellular assay, TNF-alpha ELISA in LPS-treated THP-1 cells; type: cell-based; conditions: 1 μM, THP-1 human monocytes, LPS 50 ng/ml, p<0.05
Experimental: THP-1 cells were grown to confluence and plated in 6-well plates. PMA (25 nM) was added to the medium and replaced with non-PMA containing medium 24 hrs later. ATH compounds (1 μM) or vehicle (0.1% DMSO) were added and allowed to incubate. After 4 hrs LPS (50 ng/ml) was added without replacement of the medium and supernatants were collected after 4 and 24 hrs. Media were placed on ice for cytokine detection using ELISA (Quantikine, R&D Systems).
VNN1 inhibitors Compound 1 and Compound 2 show suppression of TNF-alpha (TNFA) expression after LPS (lipopolysaccharide) treatment, in THP-1 human monocytes (FIG. 3, p<0.05 for both).

[10] = parallel artificial membrane permeation assay (PAMPA); conditions: 20 μM in PBS/MeOH 90:10, 5 hours at room temperature
Experimental: (§4) The permeability of compounds was evaluated with the parallel artificial membrane permeation assay (PAMPA) as an in vivo model of passive diffusion across a porous filter coated with a lipid/oil/lipid tri-layer artificial membrane. […] Donor solutions of test compound (300 μL, 20 μM in PBS/MeOH 90:10) were added to each well of the donor plate. 200 μL of PBS/MeOH 90:10 was added to each well of the acceptor plate. The acceptor plate was coupled with the donor plate and incubated for 5 hours at room temperature (RT) without agitation. In each plate, test compound was tested in triplicate. At the end of the incubation, test compound concentration in the initial donor solution, acceptor and the donor wells were determined using LC/MS/MS. Permeability of test compound was calculated based on the formula described in “Analytical Method”.

[11] = for Permeability, Pe: PAMPA, 5 h, 20 μM
Experimental: as §4

[12] = positive controls, published class; cited from earlier work
[13] = in vitro; conditions: PAMPA
Experimental: as §4

Chain of Vanin-1 (O95497 22-513): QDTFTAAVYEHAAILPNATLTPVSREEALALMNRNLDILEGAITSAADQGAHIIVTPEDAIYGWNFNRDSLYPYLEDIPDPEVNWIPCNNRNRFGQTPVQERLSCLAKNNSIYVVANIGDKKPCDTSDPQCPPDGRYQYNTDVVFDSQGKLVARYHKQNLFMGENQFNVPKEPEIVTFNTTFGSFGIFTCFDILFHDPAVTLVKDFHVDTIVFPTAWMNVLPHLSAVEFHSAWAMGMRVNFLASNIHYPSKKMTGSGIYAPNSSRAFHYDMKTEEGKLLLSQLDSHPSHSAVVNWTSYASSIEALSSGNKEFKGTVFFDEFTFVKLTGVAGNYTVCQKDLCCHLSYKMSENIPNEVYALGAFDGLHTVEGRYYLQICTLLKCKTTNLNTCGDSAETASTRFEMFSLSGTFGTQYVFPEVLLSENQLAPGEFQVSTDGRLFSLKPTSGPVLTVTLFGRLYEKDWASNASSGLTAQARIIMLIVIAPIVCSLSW

Structure (SMILES): O=C(Cc1ccccc1)c1ccn(C(=O)c2ccccc2F)c1 [Compound 1, 1-(1-(2-fluorobenzoyl)-1H-pyrrol-3-yl)-2-phenylethan-1-one]
Kd [1]: 100 to 500 nM
IC50 [2]: > 100 µM
IC50 [3]: 50.6 µM
IC50 [4]: > 100 µM
IC50 [5]: > 100 µM
IC50 [6]: > 100 µM
IC50 [7]: > 100 µM
activity against IL6, TNFA and MCP1 [8]: highly potent activity
suppression of TNF-alpha (TNFA) expression after LPS treatment [9]: suppression; also recorded: significantly inhibits
Permeability, Pe [10]: 23.6 ×10⁻⁶ cm/s

Structure (SMILES): Cn1c(C(=O)Cc2ccccc2)ccc1C(=O)c1ccccc1F [Compound 22, 1-(5-(2-fluorobenzoyl)-1-methyl-1H-pyrrol-2-yl)-2-phenylethan-1-one]
Kd [1]: < 100 nM

Structure (SMILES): Cn1c(C(=O)Cc2ccccc2)ccc1C(=O)c1ccccn1 [Compound 25, 1-(1-methyl-5-picolinoyl-1H-pyrrol-2-yl)-2-phenylethan-1-one]
Kd [1]: 100 to 500 nM

Structure (SMILES): O=C(c1ccn(Cc2c(F)cccc2F)c1)C(Cc1c(F)cccc1F)c1ccccc1 (stereo not shown) [Compound 3, 1-(1-(2,6-difluorobenzyl)-1H-pyrrol-3-yl)-3-(2,6-difluorophenyl)-2-phenylpropan-1-one]
Kd [1]: > 500 nM
activity against IL6, TNFA and MCP1 [8]: highly potent activity

Structure (SMILES): Cn1cccc1C(=O)Cc1ccccc1 [Compound 80, 1-(1-methyl-1H-pyrrol-2-yl)-2-phenylethan-1-one]
activity against IL6, TNFA and MCP1 [8]: highly potent activity

Structure (SMILES): Cn1c(C(=O)c2ccccc2F)ccc1C(=O)N1CCC2(CCOCC2)C1 [Compound 33, (5-(2-fluorobenzoyl)-1-methyl-1H-pyrrol-2-yl) (8-oxa-2-azaspiro[4.5]decan-2-yl) methanone]
Kd [1]: < 100 nM

Structure (SMILES): O=C(Cc1ccccc1)c1ccn(Cc2c(F)cccc2F)c1 [Compound 2, 1-(1-(2,6-difluorobenzyl)-1H-pyrrol-3-yl)-2-phenylethan-1-one]
Kd [1]: 100 to 500 nM
IC50 [2]: > 100 µM
IC50 [3]: 15.3 µM
IC50 [4]: 65.5 µM
IC50 [5]: 63.4 µM
IC50 [6]: 27 µM
IC50 [7]: 73.7 µM
activity against IL6, TNFA and MCP1 [8]: highly potent activity
suppression of TNF-alpha (TNFA) expression after LPS treatment [9]: suppression; also recorded: significantly inhibits
Permeability, Pe [11]: 13.6 ×10⁻⁶ cm/s

Now from value to molecule, other results behind:

Kd [1]: < 100 nM
Structure (SMILES): Cn1c(C(=O)NC(C)(C)C)ccc1C(=O)c1ccccc1F [Compound 43, N-(tert-butyl)-5-(2-fluorobenzoyl)-1-methyl-1H-pyrrole-2-carboxamide]

Kd [1]: > 500 nM
Structure (SMILES): O=C(Cc1ccccc1)c1c[nH]c(C(=O)c2ccccc2F)c1 [Compound 47, 1-(5-(2-fluorobenzoyl)-1H-pyrrol-3-yl)-2-phenylethan-1-one]

Permeability, Pe [11]: 10.9 ×10⁻⁶ cm/s
Structure (SMILES): O=C(O)Cc1ccccc1Nc1c(Cl)cccc1Cl [Diclofenac]
published permeability [12]: high

Kd [1]: > 500 nM
Structure (SMILES): Cn1cc(C(=O)c2ccccc2F)cc1C(=O)O [Compound 76, 4-(2-fluorobenzoyl)-1-methyl-1H-pyrrole-2-carboxylic acid]

PAMPA permeability Classification [11]: Low/Medium
Papp at 5 h, 20 μM [13]: 0.0392 ×10⁻⁶ cm/s
Structure (SMILES): CCN1CCCC1CNC(=O)c1cc(S(N)(=O)=O)ccc1OC (stereo not shown) [Sulpiride]
published permeability [12]: low

Kd [1]: > 500 nM
Structure (SMILES): Cn1cc(C(=O)Cc2ccccc2)cc1C(=O)c1ccccc1F [Compound 46, 1-(5-(2-fluorobenzoyl)-1-methyl-1H-pyrrol-3-yl)-2-phenylethan-1-one]

Kd [1]: < 100 nM
Structure (SMILES): Cn1cc(C(=O)c2ccccc2F)cc1C(=O)N1CCC2(CCOCC2)C1 [Compound 77, (4-(2-fluorobenzoyl)-1-methyl-1H-pyrrol-2-yl) (8-oxa-2-azaspiro[4.5]decan-2-yl) methanone]

Kd [1]: < 100 nM
Structure (SMILES): CC(=O)N(C)[C@@H]1CCN(C(=O)c2cc(C(=O)c3ccccc3F)cn2C)C1 [Compound 78, (R)—N-(1-(4-(2-fluorobenzoyl)-1-methyl-1H-pyrrole-2-carbonyl)pyrrolidin-3-yl)-N-methylacetamide]
